Experimental data: patent US20120121540A1 (priority 2007, published 2012)

Assay: HCV replicon assay (luciferase reporter, ET cell line)
Assay type: cell-based
Conditions: Hepatitis C virus, HCV replicon luciferase activity in ET cells
Method: A cell line, ET (Huh-lucubineo-ET) is used for screening of compounds for inhibiting HCV RNA dependent RNA polymerase. The ET cell line is stably transfected with RNA transcripts harboring a I389 luc-ubi-neo/NS3-3′/ET; replicon with firefly luciferase-ubiquitin-neomycin phosphotransferase fusion protein and EMCV-IRES driven NS3-5B polyprotein containing the cell culture adaptive mutations (E1202G; T1280I; K1846T) (Krieger at al, 2001 and unpublished). The ET cells are grown in DMEM (Dulbeco's Modified Eagle's Medium), supplemented with 10% fetal calf serum, 2 mM Glutamine, Penicillin (100 IU/mL)/Streptomycin (100 μg/mL), 1× nonessential amino acids, and 250 μg/mL G418 (“Geneticin”). They are all available through Life Technologies (Bethesda, Md.). The cells are plated at 0.5−1.0×10^4 cells/well in the 96 well plates and incubated for 24 hrs before adding test compound. The compounds are added to the cells to achieve a final concentration of 0.1 nM to 50 μm and a final DMSO (dimethylsulfoxide) concentration of 0.5%. Luciferase activity is measured 48-72 hours later by adding a lysis buffer and the substrate (Catalog number Glo-lysis buffer E2661 and Bright-Glo luciferase system E2620 Promega, Madison, Wis.). Cells should not be too confluent during the assay. Percent inhibition of replication data is plotted relative to no compound control. Under the same condition, cytotoxicity of the compounds are determined using cell proliferation reagent, WST-1 (Roche, Germany). The compounds showing antiviral activities, but no significant cytotoxicities are chosen to determine EC50 and TC50. For these determinations, a 10 point, 2-fold serial dilution for each compound was used, which spans a concentration range of 1000 fold. EC50 and similarly TC50 values were calculated by fitting % inhibition at each concentration to the following equation:
% inhibition=100%/[(EC50/[I])^b+1]
where b is Hill's coefficient.
% inhibition values at a specific concentration, […] for example, can also be derived from the equation above.

| Compound | inhibition at 10 µM [%] |
| --- | --- |
| O=C(NCCc1cccs1)c1cc2cc(-c3ccccc3)cc(I)n2n1 [Compound 125, 7-Iodo-5-phenyl-pyrazolo[1,5-a]pyridine-2-carboxylic Acid (2-thiophen-2-yl-ethyl)-amide] | 48 |
| O=C(NCc1ccccc1F)c1cc2cc(-c3ccccc3)cc(I)n2n1 [Compound 128, 7-Iodo-5-phenyl-pyrazolo[1,5-a]pyridine-2-carboxylic Acid 2-fluoro-benzylamide] | 65.2 |
| O=C(NCc1ccccc1)c1cc2cc(-c3ccccc3)cc(I)n2n1 [Compound 129, 7-Iodo-5-phenyl-pyrazolo[1,5-a]pyridine-2-carboxylic Acid benzylamide] | 43 |
| O=C(NCCc1ccccc1)c1cc2cc(-c3ccccc3)cc(I)n2n1 [Compound 130, 7-Iodo-5-phenyl-pyrazolo[1,5-a]pyridine-2-carboxylic Acid phenethyl-amide] | 32.3 |
| O=C(NCC1CCCO1)c1cc2cc(-c3ccccc3)cc(I)n2n1 (stereo not shown) [Compound 131, 7-Iodo-5-phenyl-pyrazolo[1,5-a]pyridine-2-carboxylic Acid (tetrahydro-furan-2-ylmethyl)-amide] | 49.2 |
| O=C(NCc1cccs1)c1cc2cc(-c3ccco3)cc(C(F)(F)Cl)n2n1 [Compound 133, 7-(Chloro-difluoro-methyl)-5-furan-2-yl-pyrazolo[1,5-a]pyridine-2-carboxylic Acid (thiophen-2-ylmethyl)-amide] | 99.8 |
| O=C(NCc1cccs1)c1cn2cc(-c3ccccc3)cc(C(F)(F)F)c2n1 [Compound 137, 6-Phenyl-8-trifluoromethyl-imidazo[1,2-a]pyridine-2-carboxylic Acid (thiophen-2-ylmethyl)-amide] | 63 |
| O=C(NCc1cccs1)c1cn2cc(-c3ccco3)cc(C(F)(F)F)c2n1 [Compound 138, 6-Furan-2-yl-8-trifluoromethyl-imidazo[1,2-a]pyridine-2-carboxylic Acid (thiophen-2-ylmethyl)-amide] | 92.1 |
| O=C(NCc1cccs1)c1nc2c(C(F)(F)F)cc(-c3ccccc3)cn2c1Br [Compound 139, 3-Bromo-6-phenyl-8-trifluoromethyl-imidazo[1,2-a]pyridine-2-carboxylic Acid (thiophen-2-ylmethyl)-amide] | 97.9 |
| O=C(NCc1cccs1)c1cc2cc(-c3ccco3)cc(Cl)n2n1 [Compound 145, 7-Chloro-5-furan-2-yl-pyrazolo[1,5-a]pyridine-2-carboxylic Acid (thiophen-2-ylmethyl)-amide] | 49.8 |
| CN(Cc1cccs1)C(=O)c1cn2cc(-c3ccco3)cc(C(F)(F)F)c2n1 [Compound 146, 6-Furan-2-yl-8-trifluoromethylimidazo[1,2-a]pyridine-2-carboxylic Acid Methyl-thiophen-2-ylmethyl-amide] | 35.1 |
| CN(Cc1cccs1)C(=O)c1cc2cc(-c3ccccc3)cc(C(F)(F)F)n2n1 [Compound 147, 5-phenyl-7-trifluoromethyl-pyrazolo[1,5-a]pyridine-2-carboxylic Acid methyl-thiophen-2-ylmethyl-amide] | 26.8 |
| O=C(NCc1cccs1)c1cc2cc(-c3ccccc3)cc(N3CCOCC3)n2n1 [Compound 148, 7-Morpholin-4-yl-5-phenyl-pyrazolo[1,5-a]pyridine-2-carboxylic Acid (thiophen-2-ylmethyl)-amide] | 27.7 |
| CN(C)c1cc(-c2ccccc2)cc2cc(C(=O)NCc3cccs3)nn12 [Compound 150, 7-dimethylamino-5-phenyl-pyrazolo[1,5-a]pyridine-2-carboxylic Acid (thiophen-2-ylmethyl)-amide] | 43.5 |
| O=C(NCc1cccs1)c1nc2c(C(F)(F)F)cc(-c3ccco3)cn2c1Cl [Compound 152, 3-Chloro-6-furan-2-yl-8-trifluoromethyl-imidazo[1,2-a]pyridine-2-carboxylic acid (thiophen-2-ylmethyl)-amide] | 92.5 |
| O=C(NCc1cccs1)c1cc2cc(-c3ccccc3)cc(NCCO)n2n1 [Compound 154, 7-(2-Hydroxy-ethylamino)-5-phenyl-pyrazolo[1,5-a]pyridine-2-carboxylic acid (thiophen-2-ylmethyl)-amide] | 58.8 |

| Compound | inhibition at 10 µM [%] |
| --- | --- |
| Cc1c(C(=O)NCc2cccs2)nc2c(C(F)(F)F)cc(-c3ccco3)cn12 [Compound 156, 6-Furan-2-yl-3-methyl-8-trifluoromethyl-imidazo[1,2-a]pyridine-2-carboxylic acid (thiophen-2-ylmethyl)-amide] | 89.3 |
| O=C(NCc1cccs1)c1nc2c(C(F)(F)F)cc(-c3ccoc3)cn2c1Cl [Compound 157, 3-Chloro-6-furan-3-yl-8-trifluoromethyl-imidazo[1,2-a]pyridine-2-carboxylic acid (thiophen-2-ylmethyl)-amide] | 97.8 |
| O=C(NCc1ccco1)c1nc2c(C(F)(F)F)cc(-c3ccco3)cn2c1Cl [Compound 158, 3-Chloro-6-furan-2-yl-8-trifluoromethyl-imidazo[1,2-a]pyridine-2-carboxylic acid (furan-2-ylmethyl)-amide] | 88.5 |
| O=C(NCc1ccoc1)c1nc2c(C(F)(F)F)cc(-c3ccco3)cn2c1Cl [Compound 159, 3-Chloro-6-furan-2-yl-8-trifluoromethyl-imidazo[1,2-a]pyridine-2-carboxylic acid (furan-3-ylmethyl)-amide] | 94.8 |
| O=C(NCc1cccs1)c1nc2c(C(F)(F)F)cc(-c3ccsc3)cn2c1Cl [Compound 160, 3-Chloro-6-thiophen-3-yl-8-trifluoromethyl-imidazo[1,2-a]pyridine-2-carboxylic acid (thiophen-2-ylmethyl)-amide] | 97.3 |
| CC(NC(=O)c1nc2c(C(F)(F)F)cc(-c3ccco3)cn2c1Cl)c1cccs1 (stereo not shown) [Compound 162, 3-Chloro-6-furan-2-yl-8-trifluoromethyl-imidazo[1,2-a]pyridine-2-carboxylic acid (1-thiophen-2-yl-ethyl)-amide] | 44.2 |
| O=C(NCc1ccccn1)c1nc2c(C(F)(F)F)cc(-c3ccco3)cn2c1Cl [Compound 163, 3-Chloro-6-furan-2-yl-8-trifluoromethyl-imidazo[1,2-a]pyridine-2-carboxylic acid (pyridin-2-ylmethyl)-amide] | 95.4 |
| O=C(NCc1cccnc1)c1nc2c(C(F)(F)F)cc(-c3ccco3)cn2c1Cl [Compound 164, 3-Chloro-6-furan-2-yl-8-trifluoromethyl-imidazo[1,2-a]pyridine-2-carboxylic acid (pyridin-3-ylmethyl)-amide] | 70.1 |
| COC(=O)C(NC(=O)c1nc2c(C(F)(F)F)cc(-c3ccco3)cn2c1Cl)c1cccs1 (stereo not shown) [Compound 166, [(3-Chloro-6-furan-2-yl-8-trifluoromethyl-imidazo[1,2-a]pyridine-2-carbonyl)-amino]-thiophen-2-yl-acetic acid methyl ester] | 49.1 |
| O=C(NCC1CC1)c1nc2c(C(F)(F)F)cc(-c3ccco3)cn2c1Cl [Compound 169, 3-Chloro-6-furan-2-yl-8-trifluoromethyl-imidazo[1,2-a]pyridine-2-carboxylic acid cyclopropylmethyl-amide] | 50.3 |
| O=C(NCC1CCCCC1)c1nc2c(C(F)(F)F)cc(-c3ccco3)cn2c1Cl [Compound 170, 3-Chloro-6-furan-2-yl-8-trifluoromethyl-imidazo[1,2-a]pyridine-2-carboxylic acid cyclohexylmethyl-amide] | 58 |
| O=C(NC(C(=O)NCCCN1CCOCC1)c1cccs1)c1nc2c(C(F)(F)F)cc(-c3ccco3)cn2c1Cl (stereo not shown) [Compound 171, 3-Chloro-6-furan-2-yl-8-trifluoromethyl-imidazo[1,2-a]pyridine-2-carboxylic acid [(3-morpholin-4-yl-propylcarbamoyl)-thiophen-2-yl-methyl]-amide] | 99.4 |
| CN(C)CCNC(=O)C(NC(=O)c1nc2c(C(F)(F)F)cc(-c3ccco3)cn2c1Cl)c1cccs1 (stereo not shown) [Compound 172, 3-Chloro-6-furan-2-yl-8-trifluoromethyl-imidazo[1,2-a]pyridine-2-carboxylic acid [(2-dimethylamino-ethylcarbamoyl)-thiophen-2-yl-methyl]-amide] | 100 |
| O=C(NCc1ccsc1)c1nc2c(C(F)(F)F)cc(-c3ccco3)cn2c1Cl [Compound 173, 3-Chloro-6-furan-2-yl-8-trifluoromethyl-imidazo[1,2-a]pyridine-2-carboxylic acid (thiophen-3-ylmethyl)-amide] | 95.2 |
| O=C(NCc1ccccc1)c1nc2c(C(F)(F)F)cc(-c3ccco3)cn2c1Cl [Compound 174, 3-Chloro-6-furan-2-yl-8-trifluoromethyl-imidazo[1,2-a]pyridine-2-carboxylic acid benzylamide] | 85.7 |
